Reference: ChEMBL document CHEMBL2401610, “N-Benzyloxycarbonyl-S-(2,4-dinitrophenyl)glutathione dibutyl diester is inhibitory to melarsoprol resistant cell lines overexpressing the T. bruceiMRPA transporter” (Bioorg Med Chem Lett, 2013)

Columns and labels:
[1] = system: Trypanosoma brucei brucei; test: Resistant factor, ratio of IC50 for bloodstream form of Trypanosoma brucei brucei expressing TbMRPA protein to IC50 for bloodstream form of wild type Trypanosoma brucei 247; format: functional
[2] = system: Trypanosoma brucei brucei; test: Antitrypanosomal activity against bloodstream form of wild type Trypanosoma brucei brucei 247 after 3 days by microplate assay; format: functional, organism-based; conditions: Trypanosoma brucei, 247, 72 h
[3] = system: Trypanosoma brucei brucei; test: Antitrypanosomal activity against bloodstream form of Trypanosoma brucei brucei expressing TbMRPA protein after 3 days by microplate assay; format: functional, organism-based; conditions: 72 h

SMILES | Ratio IC50 [1] | IC50 [2] [µM] | IC50 [3] [µM]
O=C(O)CNC(=O)[C@H](CSC(=O)c1ccc(Br)cc1)NC(=O)CC[C@H](NC(=O)OCc1ccccc1)C(=O)O | 182 | 4.3 | 785
COC(=O)CNC(=O)[C@H](CSC(=O)c1ccc(Br)cc1)NC(=O)CC[C@H](NC(=O)OCc1ccccc1)C(=O)OC | 16.6 | 3.5 | 58
Nc1nc(N)nc(Nc2ccc([As]3SCC(CO)S3)cc2)n1 (stereo not drawn) [MELARSOPROL] | 10 | – | –
N[C@@H](CCC(=O)N[C@@H](CSC(=O)c1ccc(Br)cc1)C(=O)NCC(=O)O)C(=O)O | 1.8 | 87.5 | 163
CCCCOC(=O)CNC(=O)[C@H](CSc1ccc([N+](=O)[O-])cc1[N+](=O)[O-])NC(=O)CC[C@H](NC(=O)OCc1ccccc1)C(=O)OCCCC | 1.4 | 4.5 | 6.5
